{
  "source": "patent US20250108038A1",
  "about": "(priority 2023, published 2025)",
  "key": {"in vivo": {"assay": "in vivo", "conditions": "for plasma concentration of Compound A: Compound A single PO 5.102 mg/kg", "protocol": "Dose solutions were prepared freshly on each day of studies prior to dosing.\nThe animals were weighed immediately prior to dosing and the dose volume was calculated individually based the obtained body weight and the nominal dose volume. […] The nominal dose volume was 10 mL/kg in both studies.\nCage side observation was performed before and after dosing as well as at each scheduled sample collection time. The observation included appearance, posture, behavior, morbidity and mortality. Abnormal findings, if any, are required to be recorded in the study record and communicated with study director, veterinarian, and Supernus if necessary.\nApproximately 40 μL blood was collected at each scheduled time point from saphenous veins. The actual sample collection time was within 1 min. of the nominal time for collections prior to or at 1 hour, and within 5% of the nominal values for collections post 1 hour.\nThe blood samples were placed in pre-labeled micro-centrifuge tubes containing K2EDTA as anticoagulant and kept on ice before they were processed to plasma within 30 minutes of collection by centrifugation at 4° C., 3000 g for 5 minutes. The plasma samples were stored at −70±10° C. until LC-MS/MS analysis.\nPlasma concentrations below the LLOQ prior to Tmax were set to zero, and those after Tmax were excluded from PK calculation. The nominal dose and the nominal sample collection time were used for the calculation. The values of plasma concentrations and PK parameters are reported to three significant figures. The average values of each treatment group are presented as mean±SD."}, "OATP1B3": {"molecular_target": "T1, OATP1B3 (Homo sapiens, UniProt Q9NPD5)", "T1 sequence (Q9NPD5 1-702)": "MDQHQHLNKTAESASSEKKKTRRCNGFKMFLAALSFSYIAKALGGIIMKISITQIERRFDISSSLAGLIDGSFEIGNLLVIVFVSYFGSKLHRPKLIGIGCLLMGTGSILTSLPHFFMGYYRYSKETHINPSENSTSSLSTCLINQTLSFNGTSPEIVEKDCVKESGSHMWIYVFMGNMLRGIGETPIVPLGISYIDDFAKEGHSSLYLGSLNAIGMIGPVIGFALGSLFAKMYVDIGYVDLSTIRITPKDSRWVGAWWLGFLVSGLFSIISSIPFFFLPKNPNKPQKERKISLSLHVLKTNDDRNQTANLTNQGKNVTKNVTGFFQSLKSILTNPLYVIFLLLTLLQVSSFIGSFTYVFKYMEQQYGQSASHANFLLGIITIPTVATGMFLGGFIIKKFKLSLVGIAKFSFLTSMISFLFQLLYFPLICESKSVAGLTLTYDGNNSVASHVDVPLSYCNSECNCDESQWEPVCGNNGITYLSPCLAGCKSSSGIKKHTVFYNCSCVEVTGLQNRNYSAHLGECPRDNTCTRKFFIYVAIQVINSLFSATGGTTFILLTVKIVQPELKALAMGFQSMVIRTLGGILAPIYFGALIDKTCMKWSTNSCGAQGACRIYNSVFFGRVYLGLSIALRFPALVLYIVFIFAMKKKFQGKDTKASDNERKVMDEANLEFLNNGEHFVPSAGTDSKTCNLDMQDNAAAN", "assay": "Uptake transporter inhibition assay, OATP1B3 (CCK-8)", "conditions": "for Relative transporter specific accumulation: CCK-8, Table 120", "protocol": "Uptake experiments were performed using HEK293 cells stably expressing the respective uptake transporters. The assays were conducted according to the actual SOLVO uptake transporter assay protocols (PR-ASY-UPT-General Protocol for Uptake Transporter Inhibition Assays).\nCells were cultured at 37° C. in a humidified atmosphere containing 5% CO2 and were plated onto standard 96-well tissue culture plates.\nBefore the experiment, the medium was removed, and the cells were washed twice with 100 μL of pre-warmed (37° C.) assay buffer listed in Table 15. The cells were pre-incubated at 37° C. for 30 minutes in assay buffer containing the test article at appropriate concentrations (Table 16), appropriate solvents for solvent controls and the reference inhibitor for reference inhibitor wells. After the pre-incubation step solutions were removed. Uptake experiments were performed at 37° C. in 50 μL of assay buffer containing the probe substrate and the test article or solvent and controls.\nAfter the experiment, cells were washed twice with 100 μL of appropriate cold buffer and lysed with 150 μL scintillation cocktail. Radiolabeled probe substrate transport was determined by liquid scintillation counting.\nUptake of the probe substrate in control cells provided background activity values for all data points."}, "[1]": {"conditions": "male, CD-1, mouse, in vivo, po, 5.102 mg/kg"}},
  "note": "“And” between values parts separate entries of the source, which are not always exact repeats. Equal entries are not always repeated. “Also recorded” adds a separate entry of the source.",
  "data": [
    {"smiles": "OC1(c2ccc(Cl)cc2)c2ccccc2C2=NCCN21", "note": "(stereo not drawn) [Compound A, 5-(4-chlorophenyl)-2,3-dihydroimidazo[1,2-b]isoindol-5-ol, reference compound]", "values": [
      {"measurement": "plasma concentration of Compound A", "setting": "in vivo; 0.500 h, individual mice, 5.102 mg/kg", "result": "117 ng/mL and 172 ng/mL and 141 ng/mL"},
      {"measurement": "plasma concentration of Compound A", "setting": "in vivo; 0.500 h, mean", "result": 143, "unit": "ng/mL"},
      {"measurement": "plasma concentration of Compound A", "setting": "in vivo; 1.00 h, individual mice, 5.102 mg/kg", "result": "77.8 ng/mL and 71.7 ng/mL and 102 ng/mL"},
      {"measurement": "plasma concentration of Compound A", "setting": "in vivo; 1.00 h, mean", "result": 83.8, "unit": "ng/mL"},
      {"measurement": "plasma concentration of Compound A", "setting": "in vivo; 2.00 h, individual mice, 5.102 mg/kg", "result": "32.3 ng/mL and 25.2 ng/mL and 24.4 ng/mL"},
      {"measurement": "plasma concentration of Compound A", "setting": "in vivo; 2.00 h, mean", "result": 27.3, "unit": "ng/mL"},
      {"measurement": "plasma concentration of Compound A", "setting": "in vivo; 4.00 h, individual mice, 5.102 mg/kg", "result": "9.42 ng/mL and 4.31 ng/mL and 8.99 ng/mL"},
      {"measurement": "plasma concentration of Compound A", "setting": "in vivo; 4.00 h, mean", "result": 7.57, "unit": "ng/mL"},
      {"measurement": "plasma concentration of Compound A", "setting": "in vivo; 8.00 h, individual mice", "result": "BQL"},
      {"measurement": "plasma concentration of Compound A", "setting": "in vivo; 24.0 h, individual mice", "result": "BQL"},
      {"measurement": "Tmax of Compound A", "setting": "in vivo; male, CD-1, mouse, in vivo, ip, 4.061 mg/kg", "result": 30, "unit": "min"},
      {"measurement": "AUC(0-t)", "setting": "in vivo; [1]", "result": "179 ± 6.91", "unit": "ng·h/mL"},
      {"measurement": "Cmax", "setting": "in vivo; [1]", "result": "143 ± 27.6", "unit": "ng/mL"},
      {"measurement": "MRT last", "setting": "in vivo; [1]", "result": "70.8 ± 6.78", "unit": "min"},
      {"measurement": "Tmax", "setting": "in vivo; [1]", "result": 30, "unit": "min"},
      {"measurement": "half-life", "setting": "in vivo; [1]", "result": "53.1 ± 7.8", "unit": "min"},
      {"measurement": "Tmax of Compound A", "setting": "in vivo; male, CD-1, mouse, in vivo, po, 6.645 mg/kg", "result": 15, "unit": "min"},
      {"measurement": "Clinical observation (tolerability)", "setting": "in vivo; mouse, in vivo", "result": "well tolerated"},
      {"measurement": "Relative transporter specific accumulation", "setting": "OATP1B3; 3.00 μM nominal", "result": "92.81 ± 3.95 % of control"},
      {"measurement": "Relative transporter specific accumulation", "setting": "OATP1B3; 30.00 μM nominal", "result": "90.63 ± 4.66 % of control"},
      {"measurement": "maximum inhibition of OATP1B3-mediated CCK-8 accumulation", "setting": "OATP1B3; 2-concentration assay, up to 100 μM (Compound A up to 30 μM)", "result": "did not inhibited; also recorded: not an in vitro inhibitor"},
      {"measurement": "Maximum % inhibition", "setting": "OATP1B3; OATP1B3, HEK293 cells, CCK-8 (1 μM), NIO: no inhibition observed", "result": "NIO"},
      {"measurement": "inhibition at 3 μM", "setting": "OATP1B3; human", "result": 7, "unit": "%"},
      {"measurement": "inhibition at 30 μM", "setting": "OATP1B3; human", "result": 9, "unit": "%"}
    ]}
  ]
}
